For one data set, the system named is erythrocyte membrane. Nature of the data set: stabilising effect on the erythrocyte membrane (haemolysis in hypotonic medium and with heat). It counts as cell-based, rabbit. The text has this: Nature (1970) 225, Mar. 21, 1150-1151.
Another data set can be described thus: in vivo. Conditions: mouse, ip.
Data set [1] in a line: LD50 toxicity in the mouse (Table I; text). The settings on record: for change of LD50 of the cation against the reference salt: expressed as cation.
For data set [2], the system named is convulsions caused by pentetrazol. Nature of the data set: anti-convulsivant action on convulsions caused by pentetrazol. In kind it is in vivo, mouse.
Description: The compounds according to the invention also present an anti-convulsivant action on the convulsions caused in the mouse by pentetrazol: After administration of pentetrazol, the time of appearance of the convulsions and the time of appearance of death is measured, in the animals which previously received, by the intraperitoneal route, the product to be tested, comparatively to controls receiving only pentetrazol.
The subject of data set [3] is muscle fatigued by application of lactic acid. Description: test of the muscle fatigued by application of lactic acid. It counts as in vivo. The settings on record: comparison within the series. The text has this: (§1) It is furthermore suitable for the manufacture of aqueous solutions.
For data set [4] the following is noted: mouse, in vivo, ip.
A short description of data set [5]: rectal temperature (hypothermia). In kind it is in vivo. The settings on record: rat.
Another data set concerns hypermotility by ethanol. Nature of the data set: antagonism of the hypermotility caused by ethanol (Cott-Carlsson Engel Lindqvist test). Conditions: for antagonism of ethanol hypermotility / sedative activity, ranking: mouse, per os, comparison in words. It counts as in vivo, mouse. As to the method: The motility of the mice placed in the actimeter is recorded immediately after this injection, every 5 minutes, for 60 minutes. The percentage of variation of the motility of the mice treated with ethanol with respect to the controls receiving water is determined, and of mice treated with the product to be tested and with ethanol with respect to mice receiving only ethanol.

The subject of the next data set is narcosis by ethanol. Description: potentialization of narcosis by ethanol. It counts as in vivo. The settings on record: mouse, oral route, comparison within the series.
Text: as §1

Setting [6] is: LD50 expressed in Mg++ or Li+, intraperitoneal route.
The mark [7] stands for this setting: rabbit red cells in vitro, hypotonic medium pH 7.4, 53° C., read-out: ED50, stabilising effect on the erythrocyte membrane.

The record followed here is patent US4355043A, “Novel derivatives of 3-aminopropanesulfonic acid having a reinforced activity on membrane” (Les Laboratoires Meram, priority 1979, dated 1982).

Read-outs that look alike come from different tables or passages of the source.

What is called LD50 is the dose at which mortality reaches 50%. A lower LD50 goes with greater toxicity. On to `CC(=O)NCCCS(=O)(=O)[O-].[Li+]`, for which, in the data set with erythrocyte membrane (Oryctolagus cuniculus, Erythrocyte, pH 7.4, read-out: ED50, stabilising effect on the erythrocyte membrane), the EC50 was determined as 10 mM. Besides, the median lethal dose (LD50) in the data set “in vivo” (LD50, male mouse) turned out to be 4260 mg/kg; in the data set “in vivo” (setting [6]), 157 mg/kg. Moreover, the “change of LD50 of the cation against the reference salt” value in data set [1] (mouse, intraperitoneal route) is on record as “significantly increased”.

`CC(=O)NCCCS(=O)(=O)O` [Potassium acetylhomotaurinate, 3-acetylaminopropanesulfonate of potassium]: in the data set on erythrocyte membrane (setting [7]), the EC50 was found to be 5 mM. Besides, in data set [2] (315 mg/kg i.p.), the “time of appearance of death” value is given as “increase, without reaching the level of significance” and the “time of appearance of the convulsions” value is “increase, without reaching the level of significance”. Further, the “activity in the test of the muscle fatigued by lactic acid” value in data set [3] is “the most active”. In addition, in [4], the 50% lethal dose (LD50) is 4120 mg/kg and the “LD50 expressed as cation” value turned out to be 733 mg cation/kg.

Take `NCCCS(=O)(=O)O` [Homotaurine, 3-aminopropanesulfonic acid]: the EC50 in the data set with erythrocyte membrane (Oryctolagus cuniculus, Erythrocyte, pH 7.4, rabbit red cells in vitro, hypotonic medium pH 7.4, 53° C., read-out: ED50, stabilising effect on the erythrocyte membrane) was 15 mM. Further, the “effect on rectal temperature” value in data set [5] (homotaurine by intraperitoneal route) is reported as “does not modify the rectal temperature”.

Regarding `CC(=O)NCCCS(=O)(=O)O` [Sodium acetylhomotaurinate, 3-acetylaminopropanesulfonate of sodium], the EC50 in the data set with erythrocyte membrane (setting [7]) was found to be 5 mM. Besides, in the data set with hypermotility by ethanol (400 mg per os), the “antagonism of the hypermotility by ethanol, result” value (from here on “antagonism … result”) is reported as “slight antagonism which appears at the 50th minute of observation” and the “antagonism of the hypermotility by ethanol, significance” value (from here on “antagonism … significance”) is “not significant”. The “antagonism … result” value in the data set on hypermotility by ethanol (400 mg per os, listed as Sodium acetyhomotaurinate) was “slight anta-”. For the same compound, the “antagonism of ethanol hypermotility / sedative activity, ranking” value with hypermotility by ethanol is “least active”. Also, in data set [2] (292 mg/kg i.p.), the “time of appearance of death” value is reported as “increase, without reaching the level of significance” and the “time of appearance of the convulsions” value is on record as “increase, without reaching the level of significance”. In the data set with narcosis by ethanol, the “potentialization of narcosis by ethanol” value was “top of the series”. Further, the LD50 result in data set [4] is “greater than 5 g/kg”.

Consider `[Cl-].[Cl-].[Mg+2]` [magnesium chloride, reference compound], for which the “LD50 expressed in Mg++ or Li+” value in data set [1] (mouse, intraperitoneal route) was determined as 94 mg.

As for `CC(=O)NCCS(=O)(=O)O` [Calcium acetyltaurinate, reference compound], the “antagonism … result” value in the data set on hypermotility by ethanol (80 mg per os) came out at 0. In the data set on hypermotility by ethanol (800 mg per os), the “antagonism … result” value is on record as “antagonism” and the “antagonism … significance” value is listed as “x to xx according”. Further, in data set [2] (1000 mg/kg i.p., listed as Ca acetyltaurinate), the “time of appearance of death” value is on record as “significantly (x)”. In addition, the “LD50 by oral route” value in data set [1] (oral route, footnote of Table I) worked out at 13090 mg/kg.

For the compound `CC(=O)NCCCS(=O)(=O)O` [Calcium acetylhomotaurinate, calcium N-acetylhomotaurinate], the EC50 with erythrocyte membrane (setting [7]) was determined as 1 mM. Besides, the “ranking of hypothermic activity” value in data set [5] is given as “more active than that of magnesium”. Moreover, the “antagonism … result” value in the data set on hypermotility by ethanol (80 mg per os) is 0; in the data set on hypermotility by ethanol (100 mg per os), “antagonism”; with hypermotility by ethanol (200 mg per os), “antagonism”; in the data set with hypermotility by ethanol (200 mg per os, listed as calcium acetylhomotaurinate), “significant antagonism”; with hypermotility by ethanol (400 mg per os) it was “antagonism”; in the data set with hypermotility by ethanol (400 mg per os, listed as calcium acetylhomotaurinate), “significant antagonism”. The “antagonism … result” value is given as “antagonism” with hypermotility by ethanol (800 mg per os) and “this effect is confirmed at the dose of 800 mg/kg but does not appear to be superior to that recorded at 400 mg” with hypermotility by ethanol (800 mg per os, listed as calcium acetylhomotaurinate). The “antagonism … significance” value in the data set with hypermotility by ethanol (100 mg per os) is given as “xxx”; with hypermotility by ethanol (200 mg per os) it was “xx”; in the data set with hypermotility by ethanol (800 mg per os), “xx (shorter)”. For the same compound, the “antagonism of ethanol hypermotility / sedative activity, ranking” value with hypermotility by ethanol (listed as Ca acetylhomotaurinate) is on record as “greater than that of Mg acetylhomotaurinate”. The “time of appearance of death” value in data set [2] (400 mg/kg i.p.) and in data set [2] (800 mg/kg i.p.) was “significant antagonism (xx)” each time. For the same compound, the “time of appearance of convulsions” value in [2] (800 mg/kg i.p.) is reported as “significant”. For the same compound, the “time of appearance of the convulsions” value in data set [2] (1000 mg/kg i.p.) was “very significant (xxx)”. The “anti-convulsivant activity, comparison” value in [2] (mouse, i.p., in words) is on record as “greater than that of Mg acetylhomotaurinate”. This compound also came in with a 50% lethal dose (LD50) in [4] of 1870 mg/kg. For the same compound, in [4], the “LD50 expressed as cation” value stood at 186 mg cation/kg.

Take `CC(=O)NCCCS(=O)(=O)O` [Magnesium acetylhomotaurinate, magnesium N-acetylhomotaurinate]: the EC50 in the data set with erythrocyte membrane (setting [7]) amounted to 10 mM. Also, the “antagonism … result” value in the data set on hypermotility by ethanol (80 mg per os) is on record as “antagonism”; in the data set on hypermotility by ethanol (100 mg per os) it was “antagonism”; with hypermotility by ethanol (200 mg per os), “antagonism”; in the data set on hypermotility by ethanol (200 mg per os, listed as magnesium acetylhomotaurinate), “slightly less than that of the calcium salt”; in the data set on hypermotility by ethanol (400 mg per os), “antagonism”; in the data set with hypermotility by ethanol (400 mg per os, listed as magnesium acetylhomotaurinate) it was “slightly less than that of the calcium salt”. In the data set with hypermotility by ethanol (100 mg per os), the “antagonism … significance” value was “not significant”. Besides, the “time of appearance of convulsions” value in [2] (800 mg/kg i.p.) was “significant”. The LD50 in “in vivo” (LD50, male mouse) stood at 2570 mg/kg; in “in vivo” (setting [6]), 161 mg/kg. In addition, in data set [1] (mouse, intraperitoneal route), the “change of LD50 of the cation against the reference salt” value is given as “significantly increased”.

Regarding `CC(=O)NCCS(=O)(=O)O` [Magnesium acetyltaurinate, reference compound], the “antagonism … result” value with hypermotility by ethanol (100 mg per os) is reported as “antagonism”; in the data set on hypermotility by ethanol (200 mg per os), “antagonism”; with hypermotility by ethanol (400 mg per os) it was 0. For the same compound, the “antagonism … significance” value in the data set on hypermotility by ethanol (100 mg per os) and in the data set with hypermotility by ethanol (200 mg per os) was “not significant” throughout. In addition, the “time of appearance of the convulsions” value in data set [2] (1000 mg/kg i.p.) is “significantly (xx)”. In addition, in [2] (1000 mg/kg i.p., listed as Mg acetyltaurinate), the “time of appearance of death” value is recorded as “significantly (xx)”.

Take `CC(=O)NCCS(=O)(=O)[O-].[Na+]` [Sodium acetyltaurinate, reference compound]: the “antagonism … result” value in the data set on hypermotility by ethanol (400 mg per os) stood at 0.
